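48-hour exposure; five concentrations; linearly interpolated endpoints. TGI denotes the concentration required for complete inhibition of growth.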
Tests used:
Assay in all cases: DTP human tumour cell line panel, 48 h
HT29 colon = test system: HT29 colon
NCI-H522 lung = test system: NCI-H522 lung
SNB-75 CNS = test system: SNB-75 CNS
CCRF-CEM leukemia = test system: CCRF-CEM leukemia
A498 renal = test system: A498 renal
SW-620 colon = test system: SW-620 colon
HL-60(TB) leukemia = test system: HL-60(TB) leukemia
T-47D breast = test system: T-47D breast
COLO 205 colon = test system: COLO 205 colon
NCI-H226 lung = test system: NCI-H226 lung
SN12C renal = test system: SN12C renal
NCI-H460 lung = test system: NCI-H460 lung
MDA-MB-231 breast = test system: MDA-MB-231 breast
SNB-19 CNS = test system: SNB-19 CNS
K-562 leukemia = test system: K-562 leukemia
HOP-62 NSCLC = test system: HOP-62 NSCLC
DU-145 prostate = test system: DU-145 prostate
UACC-62 melanoma = test system: UACC-62 melanoma
OVCAR-8 ovarian = test system: OVCAR-8 ovarian
HCC-2998 colon = test system: HCC-2998 colon
OVCAR-3 ovarian = test system: OVCAR-3 ovarian
EKVX NSCLC = test system: EKVX NSCLC
A549 NSCLC = test system: A549 NSCLC
HS 578T breast = test system: HS 578T breast
HCT-116 colon = test system: HCT-116 colon
KM12 colon = test system: KM12 colon
HCT-15 colon = test system: HCT-15 colon
SK-MEL-5 melanoma = test system: SK-MEL-5 melanoma
OVCAR-4 ovarian = test system: OVCAR-4 ovarian
RPMI-8226 leukemia = test system: RPMI-8226 leukemia
NCI/ADR-RES ovarian = test system: NCI/ADR-RES ovarian
MCF7 breast = test system: MCF7 breast
786-0 renal = test system: 786-0 renal
UO-31 renal = test system: UO-31 renal
NCI-H23 lung = test system: NCI-H23 lung
BT-549 breast = test system: BT-549 breast
MDA-MB-435 = test system: MDA-MB-435
SF-295 CNS = test system: SF-295 CNS
SF-268 CNS = test system: SF-268 CNS
MOLT-4 leukemia = test system: MOLT-4 leukemia
U251 CNS = test system: U251 CNS
MDA-N = test system: MDA-N
MALME-3M melanoma = test system: MALME-3M melanoma
SK-MEL-28 melanoma = test system: SK-MEL-28 melanoma
OVCAR-5 ovarian = test system: OVCAR-5 ovarian
SF-539 CNS = test system: SF-539 CNS
HOP-92 NSCLC = test system: HOP-92 NSCLC
M14 melanoma = test system: M14 melanoma
ACHN renal = test system: ACHN renal
PC-3 prostate = test system: PC-3 prostate
RXF 393 renal = test system: RXF 393 renal
SK-MEL-2 melanoma = test system: SK-MEL-2 melanoma
IGROV1 ovarian = test system: IGROV1 ovarian
SK-OV-3 ovarian = test system: SK-OV-3 ovarian
TK-10 renal = test system: TK-10 renal
LOX IMVI melanoma = test system: LOX IMVI melanoma
UACC-257 melanoma = test system: UACC-257 melanoma
CAKI-1 renal = test system: CAKI-1 renal
SR leukemia = test system: SR leukemia

`Nc1ccc2nc3ccc(=O)cc-3n(-c3ccccc3)c2c1` showed a TGI (HT29 colon) of over 100 µM, a TGI (NCI-H522 lung) of over 100 µM and a TGI (SNB-75 CNS) of 92.4 µM. It also gave a TGI (CCRF-CEM leukemia) of over 100 µM, a TGI (A498 renal) of 85.7 µM and a TGI (SW-620 colon) of over 100 µM. For the same molecule, the TGI (HL-60(TB) leukemia) was over 100 µM, the TGI (T-47D breast) was over 100 µM and the TGI (COLO 205 colon) was over 100 µM. The TGI (NCI-H226 lung) was over 100 µM, the TGI (SN12C renal) was over 100 µM and the TGI (NCI-H460 lung) was over 100 µM. The TGI (MDA-MB-231 breast) was over 100 µM, the TGI (SNB-19 CNS) was over 100 µM and the TGI (K-562 leukemia) was over 100 µM. For the same molecule, the TGI (HOP-62 NSCLC) was over 100 µM, the TGI (DU-145 prostate) was over 100 µM and the TGI (UACC-62 melanoma) was over 100 µM. It also gave a TGI (OVCAR-8 ovarian) of over 100 µM, a TGI (HCC-2998 colon) of over 100 µM and a TGI (OVCAR-3 ovarian) of over 100 µM. It also gave a TGI (EKVX NSCLC) of over 100 µM, a TGI (A549 NSCLC) of over 100 µM and a TGI (HS 578T breast) of over 100 µM. For the same molecule, the TGI (HCT-116 colon) was over 100 µM, the TGI (KM12 colon) was over 100 µM and the TGI (HCT-15 colon) was over 100 µM. For the same molecule, the TGI (SK-MEL-5 melanoma) was over 100 µM, the TGI (OVCAR-4 ovarian) was over 100 µM and the TGI (RPMI-8226 leukemia) was over 100 µM. The TGI (NCI/ADR-RES ovarian) was over 100 µM, the TGI (MCF7 breast) was over 100 µM and the TGI (786-0 renal) was over 100 µM. It also gave a TGI (UO-31 renal) of over 100 µM, a TGI (NCI-H23 lung) of over 100 µM and a TGI (BT-549 breast) of over 100 µM. The TGI (MDA-MB-435) was over 100 µM, the TGI (SF-295 CNS) was over 100 µM and the TGI (SF-268 CNS) was over 100 µM. For the same molecule, the TGI (MOLT-4 leukemia) was over 100 µM, the TGI (U251 CNS) was over 100 µM and the TGI (MDA-N) was over 100 µM. The TGI (MALME-3M melanoma) was over 100 µM, the TGI (SK-MEL-28 melanoma) was over 100 µM and the TGI (OVCAR-5 ovarian) was over 100 µM. It also gave a TGI (SF-539 CNS) of over 100 µM, a TGI (HOP-92 NSCLC) of over 100 µM and a TGI (M14 melanoma) of over 100 µM. For the same molecule, the TGI (ACHN renal) was over 100 µM, the TGI (PC-3 prostate) was over 100 µM and the TGI (RXF 393 renal) was over 100 µM. It also gave a TGI (SK-MEL-2 melanoma) of over 100 µM, a TGI (IGROV1 ovarian) of over 100 µM and a TGI (SK-OV-3 ovarian) of over 100 µM.

`Cc1cc(O)c(C=NC(=S)C(N)=S)c(=O)o1` was tested, and the TGI (HT29 colon) was over 100 µM, the TGI (NCI-H522 lung) was over 100 µM and the TGI (SNB-75 CNS) was over 100 µM. The TGI (CCRF-CEM leukemia) was over 100 µM, the TGI (TK-10 renal) was over 100 µM and the TGI (SW-620 colon) was over 100 µM. The TGI (HL-60(TB) leukemia) was over 100 µM, the TGI (T-47D breast) was over 100 µM and the TGI (COLO 205 colon) was over 100 µM. The TGI (NCI-H226 lung) was over 100 µM, the TGI (SN12C renal) was over 100 µM and the TGI (NCI-H460 lung) was over 100 µM. For the same molecule, the TGI (MDA-MB-231 breast) was over 100 µM, the TGI (SNB-19 CNS) was over 100 µM and the TGI (K-562 leukemia) was over 100 µM. For the same molecule, the TGI (HOP-62 NSCLC) was over 100 µM, the TGI (DU-145 prostate) was over 100 µM and the TGI (UACC-62 melanoma) was over 100 µM. It also gave a TGI (OVCAR-8 ovarian) of over 100 µM, a TGI (HCC-2998 colon) of over 100 µM and a TGI (OVCAR-3 ovarian) of over 100 µM. For the same molecule, the TGI (EKVX NSCLC) was over 100 µM, the TGI (A549 NSCLC) was over 100 µM and the TGI (HS 578T breast) was over 100 µM. The TGI (LOX IMVI melanoma) was over 100 µM, the TGI (HCT-116 colon) was over 100 µM and the TGI (KM12 colon) was over 100 µM. For the same molecule, the TGI (HCT-15 colon) was over 100 µM, the TGI (SK-MEL-5 melanoma) was over 100 µM and the TGI (OVCAR-4 ovarian) was over 100 µM. The TGI (RPMI-8226 leukemia) was over 100 µM, the TGI (UACC-257 melanoma) was over 100 µM and the TGI (NCI/ADR-RES ovarian) was over 100 µM. For the same molecule, the TGI (MCF7 breast) was over 100 µM, the TGI (786-0 renal) was over 100 µM and the TGI (UO-31 renal) was over 100 µM. The TGI (NCI-H23 lung) was over 100 µM, the TGI (BT-549 breast) was over 100 µM and the TGI (MDA-MB-435) was over 100 µM. For the same molecule, the TGI (CAKI-1 renal) was over 100 µM, the TGI (SF-295 CNS) was over 100 µM and the TGI (SF-268 CNS) was over 100 µM. The TGI (MOLT-4 leukemia) was over 30.1 µM, the TGI (U251 CNS) was over 100 µM and the TGI (MDA-N) was over 100 µM. For the same molecule, the TGI (SK-MEL-28 melanoma) was over 100 µM, the TGI (OVCAR-5 ovarian) was over 100 µM and the TGI (SF-539 CNS) was over 100 µM. The TGI (HOP-92 NSCLC) was over 100 µM, the TGI (M14 melanoma) was over 100 µM and the TGI (SR leukemia) was over 100 µM. The TGI (ACHN renal) was over 100 µM, the TGI (PC-3 prostate) was over 100 µM and the TGI (RXF 393 renal) was over 100 µM. For the same molecule, the TGI (SK-MEL-2 melanoma) was over 100 µM, the TGI (IGROV1 ovarian) was over 100 µM and the TGI (SK-OV-3 ovarian) was over 100 µM.

In the case of `Clc1ccc(C(c2ccc(Cl)cc2)c2cncnc2)cc1`, the TGI (HT29 colon) is reported as 28.3 µM, the TGI (NCI-H522 lung) is reported as 33.3 µM and the TGI (CCRF-CEM leukemia) is reported as 44.8 µM. For the same molecule, the TGI (TK-10 renal) was 30.8 µM, the TGI (HL-60(TB) leukemia) was over 100 µM and the TGI (T-47D breast) was 32.3 µM. For the same molecule, the TGI (COLO 205 colon) was 33.2 µM, the TGI (SN12C renal) was 36.6 µM and the TGI (NCI-H460 lung) was 31.4 µM. For the same molecule, the TGI (MDA-MB-231 breast) was 34 µM, the TGI (SNB-19 CNS) was 33 µM and the TGI (K-562 leukemia) was over 100 µM. The TGI (HOP-62 NSCLC) was 31.3 µM, the TGI (DU-145 prostate) was 31.3 µM and the TGI (UACC-62 melanoma) was 28.7 µM. The TGI (OVCAR-8 ovarian) was 42.5 µM, the TGI (OVCAR-3 ovarian) was 27.9 µM and the TGI (A549 NSCLC) was 38.5 µM. It also gave a TGI (HS 578T breast) of 39.9 µM, a TGI (LOX IMVI melanoma) of 31.2 µM and a TGI (HCT-116 colon) of 26.9 µM. The TGI (KM12 colon) was 37 µM, the TGI (HCT-15 colon) was 39.1 µM and the TGI (SK-MEL-5 melanoma) was 25.9 µM. The TGI (OVCAR-4 ovarian) was 29 µM, the TGI (RPMI-8226 leukemia) was over 100 µM and the TGI (UACC-257 melanoma) was 49.1 µM. The TGI (NCI/ADR-RES ovarian) was 44.4 µM, the TGI (MCF7 breast) was 30 µM and the TGI (786-0 renal) was 33 µM. The TGI (UO-31 renal) was 25.1 µM, the TGI (NCI-H23 lung) was 36.9 µM and the TGI (BT-549 breast) was 27.4 µM. For the same molecule, the TGI (MDA-MB-435) was 28 µM, the TGI (CAKI-1 renal) was 39.7 µM and the TGI (SF-295 CNS) was 35.6 µM. For the same molecule, the TGI (SF-268 CNS) was 33.8 µM, the TGI (MOLT-4 leukemia) was 67.6 µM and the TGI (U251 CNS) was 32.1 µM. It also gave a TGI (MDA-N) of 29.3 µM, a TGI (MALME-3M melanoma) of 36.1 µM and a TGI (SK-MEL-28 melanoma) of 33.4 µM. It also gave a TGI (OVCAR-5 ovarian) of 29.5 µM, a TGI (M14 melanoma) of 30 µM and a TGI (SR leukemia) of over 100 µM. It also gave a TGI (ACHN renal) of 36.4 µM, a TGI (PC-3 prostate) of 27.3 µM and a TGI (RXF 393 renal) of 25.2 µM. For the same molecule, the TGI (IGROV1 ovarian) was 33.8 µM and the TGI (SK-OV-3 ovarian) was 33.4 µM.

From PubChem BioAssay (NCI)
